Assay results from ChEMBL document CHEMBL1152560, “Substituted 2-arylbenzothiazoles as kinase inhibitors: hit-to-lead optimization” (Bioorg Med Chem, 2009).

How the values were obtained:
[1] = target: T1, Serine/threonine-protein kinase NLK (Homo sapiens) (UniProt Q9UBE8); assay: Residual activity of NLK at 1 uM by microplate scintillation counting
T1 sequence (whole entry): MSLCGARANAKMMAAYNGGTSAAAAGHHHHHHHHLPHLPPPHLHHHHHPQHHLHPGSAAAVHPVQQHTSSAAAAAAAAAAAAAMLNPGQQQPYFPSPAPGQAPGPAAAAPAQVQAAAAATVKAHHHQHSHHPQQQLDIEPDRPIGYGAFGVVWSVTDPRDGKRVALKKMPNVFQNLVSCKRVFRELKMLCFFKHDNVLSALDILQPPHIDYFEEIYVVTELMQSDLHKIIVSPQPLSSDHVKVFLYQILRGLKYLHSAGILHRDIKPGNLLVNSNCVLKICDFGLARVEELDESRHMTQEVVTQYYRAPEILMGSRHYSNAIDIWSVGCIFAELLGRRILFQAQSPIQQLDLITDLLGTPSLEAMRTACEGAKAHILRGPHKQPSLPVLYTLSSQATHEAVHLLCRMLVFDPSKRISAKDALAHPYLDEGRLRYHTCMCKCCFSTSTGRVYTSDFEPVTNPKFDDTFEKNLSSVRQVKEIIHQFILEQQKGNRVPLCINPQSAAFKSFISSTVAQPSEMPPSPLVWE

[2] = target: Death-associated protein kinase 2 (Homo sapiens) (UniProt Q9UIK4); assay: Residual activity of DAPK2 at 10 uM by microplate scintillation counting
[3] = target: Angiopoietin-1 receptor (Homo sapiens, UniProt Q02763); assay: Residual activity of TIE2 at 1 uM by microplate scintillation counting
[4] = target: Myosin light chain kinase 2, skeletal/cardiac muscle (Homo sapiens) (UniProt Q9H1R3); assay: Residual activity of MYLK2 at 0.1 uM by microplate scintillation counting
[5] = target: Hepatocyte growth factor receptor (Homo sapiens) (UniProt P08581); assay: Residual activity of MET at 0.1 uM by microplate scintillation counting
[6] = target: Eukaryotic translation initiation factor 2-alpha kinase 1 (Homo sapiens) (UniProt Q9BQI3); assay: Residual activity of HRI at 10 uM by microplate scintillation counting
[7] = target: Casein kinase II subunit alpha (Homo sapiens) (UniProt P68400); assay: Residual activity of CK2alpha1 at 10 uM by microplate scintillation counting
[8] = target: Serine/threonine-protein kinase 24 (Homo sapiens) (UniProt Q9Y6E0); assay: Residual activity of MST3 at 0.1 uM by microplate scintillation counting
[9] = target: CDK1/Cyclin E (Homo sapiens) (UniProt P06493+P24864); assay: Residual activity of CDK1/Cyclin E at 1 uM by microplate scintillation counting; assay type: protein-complex assay
[10] = target: Cyclin-dependent kinase 16 (Homo sapiens) (UniProt Q00536); assay: Residual activity of PCTAIRE1 at 10 uM by microplate scintillation counting
[11] = target: Protein kinase C alpha type (Homo sapiens) (UniProt P17252); assay: Residual activity of PKCalpha at 1 uM by microplate scintillation counting
[12] = target: Mitogen-activated protein kinase 14 (Homo sapiens) (UniProt Q16539); assay: Residual activity of p38alpha at 1 uM by microplate scintillation counting
[13] = target: BDNF/NT-3 growth factors receptor (Homo sapiens) (UniProt Q16620); assay: Residual activity of TRK-B at 10 uM by microplate scintillation counting
[14] = target: T2, Serine/threonine-protein kinase D2 (Homo sapiens) (UniProt Q9BZL6); assay: Residual activity of PRKD2 at 0.1 uM by microplate scintillation counting
T2 sequence (whole entry): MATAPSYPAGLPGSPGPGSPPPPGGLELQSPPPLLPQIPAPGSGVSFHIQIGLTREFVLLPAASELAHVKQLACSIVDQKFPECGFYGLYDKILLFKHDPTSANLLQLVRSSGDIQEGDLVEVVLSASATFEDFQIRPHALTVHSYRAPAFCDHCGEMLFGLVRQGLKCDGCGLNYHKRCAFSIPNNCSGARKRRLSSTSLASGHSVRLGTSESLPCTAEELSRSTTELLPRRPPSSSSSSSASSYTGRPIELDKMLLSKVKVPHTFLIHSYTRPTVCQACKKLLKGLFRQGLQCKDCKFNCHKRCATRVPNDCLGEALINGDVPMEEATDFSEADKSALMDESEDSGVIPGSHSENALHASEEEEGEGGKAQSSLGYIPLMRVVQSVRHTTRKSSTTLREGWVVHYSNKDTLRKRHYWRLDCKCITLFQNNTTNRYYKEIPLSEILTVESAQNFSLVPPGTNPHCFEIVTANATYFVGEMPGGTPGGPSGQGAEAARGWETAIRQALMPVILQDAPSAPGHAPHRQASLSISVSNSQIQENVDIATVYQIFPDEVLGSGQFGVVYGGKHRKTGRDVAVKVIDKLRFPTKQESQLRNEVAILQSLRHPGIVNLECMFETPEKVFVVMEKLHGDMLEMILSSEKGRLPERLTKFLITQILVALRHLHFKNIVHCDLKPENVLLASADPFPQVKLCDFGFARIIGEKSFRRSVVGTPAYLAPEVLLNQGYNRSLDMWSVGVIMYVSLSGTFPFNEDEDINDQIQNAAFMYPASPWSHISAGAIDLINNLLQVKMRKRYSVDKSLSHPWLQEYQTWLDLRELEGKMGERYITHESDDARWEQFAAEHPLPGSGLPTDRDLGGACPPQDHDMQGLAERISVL

[15] = target: Mitogen-activated protein kinase kinase kinase 14 (Homo sapiens) (UniProt Q99558); assay: Residual activity of NIK at 0.1 uM by microplate scintillation counting
Sequence of Mitogen-activated protein kinase kinase kinase 14 (Homo sapiens) (Q99558 whole entry, looked up): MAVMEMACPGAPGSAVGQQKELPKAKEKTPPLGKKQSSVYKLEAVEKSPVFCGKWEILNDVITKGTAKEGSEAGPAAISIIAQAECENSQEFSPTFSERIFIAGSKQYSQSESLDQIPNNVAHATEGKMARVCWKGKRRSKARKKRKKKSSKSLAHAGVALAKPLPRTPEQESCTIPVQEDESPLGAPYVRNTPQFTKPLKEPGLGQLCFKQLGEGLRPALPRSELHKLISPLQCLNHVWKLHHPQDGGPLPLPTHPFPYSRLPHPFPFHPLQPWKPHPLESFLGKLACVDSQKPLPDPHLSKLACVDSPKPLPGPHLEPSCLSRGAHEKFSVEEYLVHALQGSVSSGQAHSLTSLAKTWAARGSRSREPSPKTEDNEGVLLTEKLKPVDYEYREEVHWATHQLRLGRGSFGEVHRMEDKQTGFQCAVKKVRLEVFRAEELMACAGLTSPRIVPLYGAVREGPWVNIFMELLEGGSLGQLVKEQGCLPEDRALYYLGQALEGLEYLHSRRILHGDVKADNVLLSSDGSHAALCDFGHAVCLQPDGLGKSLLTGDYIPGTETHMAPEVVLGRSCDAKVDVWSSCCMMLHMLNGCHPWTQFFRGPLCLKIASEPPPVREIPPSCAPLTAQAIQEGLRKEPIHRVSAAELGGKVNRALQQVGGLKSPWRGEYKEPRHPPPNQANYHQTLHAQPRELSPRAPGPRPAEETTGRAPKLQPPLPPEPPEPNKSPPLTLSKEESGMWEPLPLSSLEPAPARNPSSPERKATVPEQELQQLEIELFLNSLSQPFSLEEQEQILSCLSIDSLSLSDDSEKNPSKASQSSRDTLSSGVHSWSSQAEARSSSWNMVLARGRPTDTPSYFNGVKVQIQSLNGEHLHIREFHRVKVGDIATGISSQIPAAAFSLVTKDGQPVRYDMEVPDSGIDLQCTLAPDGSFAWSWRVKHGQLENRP

Sequence of BDNF/NT-3 growth factors receptor (Homo sapiens) (Q16620 32-822 limits assumed): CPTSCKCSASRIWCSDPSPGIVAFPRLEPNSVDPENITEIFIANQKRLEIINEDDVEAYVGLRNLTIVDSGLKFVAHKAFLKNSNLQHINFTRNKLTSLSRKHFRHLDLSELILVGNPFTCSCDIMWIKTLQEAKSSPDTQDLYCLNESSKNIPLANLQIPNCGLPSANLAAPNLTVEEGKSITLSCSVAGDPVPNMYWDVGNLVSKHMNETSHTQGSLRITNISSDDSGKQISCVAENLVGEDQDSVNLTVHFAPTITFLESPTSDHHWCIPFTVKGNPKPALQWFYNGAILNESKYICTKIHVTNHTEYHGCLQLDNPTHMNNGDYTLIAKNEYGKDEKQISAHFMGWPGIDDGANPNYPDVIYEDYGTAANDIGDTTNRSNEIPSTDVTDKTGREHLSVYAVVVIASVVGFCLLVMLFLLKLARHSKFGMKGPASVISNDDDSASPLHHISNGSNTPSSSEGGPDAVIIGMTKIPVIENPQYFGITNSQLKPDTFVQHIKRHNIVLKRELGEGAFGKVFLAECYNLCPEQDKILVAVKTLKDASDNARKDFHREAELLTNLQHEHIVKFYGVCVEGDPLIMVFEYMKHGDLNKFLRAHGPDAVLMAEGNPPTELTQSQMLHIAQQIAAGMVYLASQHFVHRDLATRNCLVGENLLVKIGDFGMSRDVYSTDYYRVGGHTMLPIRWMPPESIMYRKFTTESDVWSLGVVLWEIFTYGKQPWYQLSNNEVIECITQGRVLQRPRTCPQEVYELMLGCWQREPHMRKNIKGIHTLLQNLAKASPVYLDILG
Sequence of Eukaryotic translation initiation factor 2-alpha kinase 1 (Homo sapiens) (Q9BQI3 whole entry): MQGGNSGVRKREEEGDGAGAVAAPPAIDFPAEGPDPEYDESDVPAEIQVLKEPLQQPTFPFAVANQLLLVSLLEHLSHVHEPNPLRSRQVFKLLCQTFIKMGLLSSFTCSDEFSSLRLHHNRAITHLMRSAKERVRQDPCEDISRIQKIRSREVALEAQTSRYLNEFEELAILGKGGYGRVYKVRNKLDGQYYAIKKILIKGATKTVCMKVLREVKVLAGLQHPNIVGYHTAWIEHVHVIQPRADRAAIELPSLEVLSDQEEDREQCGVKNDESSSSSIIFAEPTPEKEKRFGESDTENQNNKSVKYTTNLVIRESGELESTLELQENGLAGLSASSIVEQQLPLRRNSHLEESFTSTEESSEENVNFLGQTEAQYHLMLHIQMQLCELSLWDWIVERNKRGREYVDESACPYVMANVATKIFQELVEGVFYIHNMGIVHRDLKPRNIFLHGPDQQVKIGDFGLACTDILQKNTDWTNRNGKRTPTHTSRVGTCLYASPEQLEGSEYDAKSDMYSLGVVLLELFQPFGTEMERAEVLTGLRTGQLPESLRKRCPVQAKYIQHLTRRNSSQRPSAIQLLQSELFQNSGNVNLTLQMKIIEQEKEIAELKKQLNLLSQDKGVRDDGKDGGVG
Sequence of CDK1/Cyclin E (Homo sapiens) (P06493 whole entry, looked up): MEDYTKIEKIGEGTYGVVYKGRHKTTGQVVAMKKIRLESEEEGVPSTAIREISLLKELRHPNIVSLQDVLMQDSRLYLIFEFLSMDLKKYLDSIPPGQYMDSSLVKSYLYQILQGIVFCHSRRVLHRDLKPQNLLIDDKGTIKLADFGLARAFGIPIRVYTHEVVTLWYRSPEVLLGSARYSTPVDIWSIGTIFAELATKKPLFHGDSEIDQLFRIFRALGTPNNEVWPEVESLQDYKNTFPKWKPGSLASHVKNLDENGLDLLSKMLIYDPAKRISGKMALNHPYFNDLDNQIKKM
Sequence of CDK1/Cyclin E (Homo sapiens) (P24864 whole entry, looked up): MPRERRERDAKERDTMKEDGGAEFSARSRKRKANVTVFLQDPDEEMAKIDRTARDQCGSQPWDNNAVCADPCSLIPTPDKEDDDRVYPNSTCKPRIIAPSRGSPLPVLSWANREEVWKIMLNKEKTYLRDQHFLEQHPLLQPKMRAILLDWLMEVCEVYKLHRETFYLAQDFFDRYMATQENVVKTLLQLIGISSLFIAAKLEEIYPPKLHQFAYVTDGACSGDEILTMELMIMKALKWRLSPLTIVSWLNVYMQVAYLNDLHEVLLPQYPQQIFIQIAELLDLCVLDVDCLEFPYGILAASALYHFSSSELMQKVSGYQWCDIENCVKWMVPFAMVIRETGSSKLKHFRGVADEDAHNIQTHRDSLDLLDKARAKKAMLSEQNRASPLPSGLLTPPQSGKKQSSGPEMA
Sequence of Myosin light chain kinase 2, skeletal/cardiac muscle (Homo sapiens) (Q9H1R3 whole entry): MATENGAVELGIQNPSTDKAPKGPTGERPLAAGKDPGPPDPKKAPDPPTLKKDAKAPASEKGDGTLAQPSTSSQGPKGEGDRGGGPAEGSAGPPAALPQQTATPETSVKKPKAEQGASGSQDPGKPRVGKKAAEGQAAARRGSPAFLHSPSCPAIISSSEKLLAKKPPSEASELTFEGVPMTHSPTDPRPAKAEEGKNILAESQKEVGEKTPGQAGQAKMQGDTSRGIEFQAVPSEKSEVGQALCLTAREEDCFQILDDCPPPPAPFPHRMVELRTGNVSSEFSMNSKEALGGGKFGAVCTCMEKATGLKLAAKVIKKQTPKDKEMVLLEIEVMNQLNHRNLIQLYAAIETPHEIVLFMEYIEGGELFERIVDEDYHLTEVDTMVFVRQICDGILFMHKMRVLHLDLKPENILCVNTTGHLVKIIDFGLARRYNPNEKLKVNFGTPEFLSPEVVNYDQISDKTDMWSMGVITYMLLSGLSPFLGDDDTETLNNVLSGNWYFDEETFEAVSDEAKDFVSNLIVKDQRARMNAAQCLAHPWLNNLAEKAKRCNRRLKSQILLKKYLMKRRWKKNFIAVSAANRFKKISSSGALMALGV
Sequence of Cyclin-dependent kinase 16 (Homo sapiens) (Q00536 whole entry): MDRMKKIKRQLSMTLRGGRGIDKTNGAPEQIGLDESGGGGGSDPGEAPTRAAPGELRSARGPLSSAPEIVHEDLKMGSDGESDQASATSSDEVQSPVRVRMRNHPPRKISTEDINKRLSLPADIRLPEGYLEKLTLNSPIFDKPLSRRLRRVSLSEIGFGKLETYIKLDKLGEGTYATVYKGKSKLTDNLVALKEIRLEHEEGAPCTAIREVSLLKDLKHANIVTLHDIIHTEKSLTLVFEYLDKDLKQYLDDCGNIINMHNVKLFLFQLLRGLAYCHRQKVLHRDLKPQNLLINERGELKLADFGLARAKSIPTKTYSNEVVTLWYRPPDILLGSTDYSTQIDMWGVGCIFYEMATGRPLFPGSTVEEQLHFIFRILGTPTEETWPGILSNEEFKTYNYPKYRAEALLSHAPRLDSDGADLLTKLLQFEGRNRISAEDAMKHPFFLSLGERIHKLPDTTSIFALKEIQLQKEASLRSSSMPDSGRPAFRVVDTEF

Row | residual activity [1] [%] | residual activity [3] [%] | residual activity [4] [%] | residual activity [5] [%] | residual activity [6] [%] | residual activity [7] [%] | residual activity [8] [%] | residual activity [9] [%] | residual activity [10] [%] | residual activity [11] [%] | residual activity [12] [%] | residual activity [13] [%] | residual activity [14] [%] | residual activity [15] [%] | SMILES | residual activity [2] [%]
1 | 96 | 23 | 33 | 106 | 112 | 188 | 98 | 85 | 126 | 128 | 143 | 82 | 89 | 87 | COc1cc2c(Oc3ccc(-c4nc5ccccc5s4)cc3)ncnc2cc1OCCCN1CCCC1 | 20
2 | 113 | 22 | 83 | 83 | 127 | 229 | 103 | 88 | 163 | 99 | 145 | 114 | 82 | 86 | COc1cc2c(Oc3ccc(-c4nc5ccccc5s4)cc3)ncnc2cc1OCCCN1CCN(C)CC1 | 15
3 | 113 | 16 | 93 | 81 | 57 | 264 | 104 | 90 | 153 | 98 | 148 | 69 | 95 | 86 | COc1cc2c(Oc3ccc(-c4nc5ccccc5s4)cc3F)ncnc2cc1OCCCN1CCN(C)CC1 | 16
